Data taken from patent US20190031667A1, “PESTICIDALLY ACTIVE HETEROCYCLIC DERIVATIVES WITH SULPHUR CONTAINING SUBSTITUENTS” (SYNGENTA PARTICIPATIONS AG, priority 2016, published 2019).

What was measured:
[1] = test system: Spodoptera littoralis (Egyptian cotton leaf worm); test: Example B1: Activity against Spodoptera littoralis, sprayed cotton leaf discs; format: in vivo; details: foliar, 72 h, application rate 200 ppm, L1 larvae, 3 days after infestation
Method: Example B1: Activity against Spodoptera littoralis (Egyptian cotton leaf worm) Cotton leaf discs were placed onto agar in 24-well microtiter plates and sprayed with aqueous test solutions prepared from 10′000 ppm DMSO stock solutions. After drying the leaf discs were infested with five L1 larvae. The samples were assessed for mortality, anti-feeding effect, and growth inhibition in comparison to untreated samples 3 days after infestation. Control of Spodoptera littoralis by a test sample is given when at least one of the categories mortality, anti-feedant effect, and growth inhibition is higher than the untreated sample.

[2] = test system: Diabrotica Balteata (Corn Root Worm); test: Example B4: Activity against Diabrotica balteata, sprayed maize sprouts; format: in vivo; details: 96 h, application rate 200 ppm, L2 larvae, 4 days after infestation, read-out: effect in at least one of the two categories (mortality or growth inhibition)
Method: Example B4: Activity Against Diabrotica Balteata (Corn Root Worm)
Maize sprouts, placed onto an agar layer in 24-well microtiter plates were treated with aqueous test solutions prepared from 10′000 ppm DMSO stock solutions by spraying. After drying, the plates were infested with L2 larvae (6 to 10 per well). The samples were assessed for mortality and growth inhibition in comparison to untreated samples 4 days after infestation.

[3] = test system: Euschistus heros (Neotropical Brown Stink Bug); test: Example B8: Activity against Euschistus heros, sprayed soybean leaves; format: in vivo; details: 120 h, application rate 200 ppm, N2 nymphs, 5 days after infestation, read-out: effect in at least one of the two categories (mortality or growth inhibition)
Method: Example B8: Activity Against Euschistus heros (Neotropical Brown Stink Bug)
Soybean leaves on agar in 24-well microtiter plates were sprayed with aqueous test solutions prepared from 10′000 ppm DMSO stock solutions. After drying the leaves were infested with N2 nymphs. The samples were assessed for mortality and growth inhibition in comparison to untreated samples 5 days after infestation.

[4] = test system: Spodoptera littoralis (Egyptian cotton leaf worm); test: Example B2: Activity against Spodoptera littoralis, systemic via lettuce roots in agar; format: in vivo; details: 144 h, test rate 12.5 ppm, uptake by lettuce roots from agar, 6 days after infestation, read-out: effect in at least one of the three categories (mortality, anti-feeding, or growth inhibition)
Description: Example B2: Activity against Spodoptera littoralis (Egyptian cotton leaf worm) Test compounds were applied by pipette from 10′000 ppm DMSO stock solutions into 24-well plates and mixed with agar. Lettuce seeds were placed onto the agar and the multi well plate was closed by another plate which contained also agar. After 7 days the compound was absorbed by the roots and the lettuce grew into the lid plate. The lettuce leaves were then cut off into the lid plate. Spodoptera eggs were pipetted through a plastic stencil onto a humid gel blotting paper and the lid plate was closed with it. The samples were assessed for mortality, anti-feedant effect and growth inhibition in comparison to untreated samples 6 days after infestation.

[5] = test system: Plutella xylostella (Diamond Back Moth); test: Example B3: Activity against Plutella xylostella, artificial diet; format: in vivo; details: 120 h, application rate 200 ppm, L2 larvae, 5 days after infestation, read-out: effect in at least one of the two categories (mortality or growth inhibition)
Method: Example B3: Activity Against Plutella xylostella (Diamond Back Moth)
24-well microtiter plates with artificial diet were treated with aqueous test solutions prepared from 10′000 ppm DMSO stock solutions by pipetting. After drying, the plates were infested with L2 larvae (10 to 15 per well). The samples were assessed for mortality and growth inhibition in comparison to untreated samples 5 days after infestation.

[6] = test system: Myzus persicae (Green Peach Aphid); test: Example B5: Activity against Myzus persicae, sprayed sunflower leaf discs; format: in vivo; details: foliar, 144 h, application rate 200 ppm, mixed-age aphids, 6 days after infestation
Method: Example B5: Activity Against Myzus persicae (Green Peach Aphid)
Sunflower leaf discs were placed onto agar in a 24-well microtiter plate and sprayed with aqueous test solutions prepared from 10′000 ppm DMSO stock solutions. After drying, the leaf discs were infested with an aphid population of mixed ages. The samples were assessed for mortality 6 days after infestation.

| melting point [°C] | SMILES | percent control (mortality, anti-feedant effect or growth inhibition) at 200 ppm [1] [%] | percent effect (mortality or growth inhibition) at 200 ppm [2] [%] | percent effect (mortality or growth inhibition) at 200 ppm [3] [%] | percent effect (mortality, anti-feeding or growth inhibition) at 12.5 ppm [4] [%] | percent effect (mortality or growth inhibition) at 200 ppm [5] [%] | mortality at 200 ppm [6] [%] |
| --- | --- | --- | --- | --- | --- | --- | --- |
| 207 to 209 | CCS(=O)(=O)c1ccc(-c2cc(F)cc(F)c2)nc1-n1cc2cnc(C(F)(F)F)cc2n1 [Compound P1, 2-[6-(3,5-difluorophenyl)-3-ethylsulfonyl-2-pyridyl]-6-(trifluoromethyl)pyrazolo[4,3-c]pyridine] |  |  |  |  |  |  |
|  | CCS(=O)(=O)c1ccc(-n2cncn2)nc1-n1nc2cc(C(F)(F)F)ncc2c1Cl [Compound P2, 3-chloro-2-[3-ethylsulfonyl-6-(1,2,4-triazol-1-yl)-2-pyridyl]-6-(trifluoromethyl)pyrazolo[4,3-c]pyridine] | ≥ 80 | ≥ 80 | ≥ 80 |  |  |  |
|  | CCS(=O)(=O)c1ccc(-n2cncn2)nc1-n1cc2cnc(C(F)(F)F)cc2n1 [Compound P3, 2-[3-ethylsulfonyl-6-(1,2,4-triazol-1-yl)-2-pyridyl]-6-(trifluoromethyl)pyrazolo[4,3-c]pyridine] | ≥ 80 | ≥ 80 | ≥ 80 | ≥ 80 | ≥ 80 | ≥ 80 |
|  | CCS(=O)(=O)c1ccc(-n2cnc(Cl)n2)nc1-n1nc2cc(C(F)(F)F)ncc2c1Cl [Compound P4] | ≥ 80 |  |  |  |  |  |
|  | CCS(=O)(=O)c1ccc(-n2cc(C#N)cn2)nc1-n1cc2cnc(C(F)(F)F)cc2n1 [Compound P5] | ≥ 80 | ≥ 80 | ≥ 80 |  | ≥ 80 |  |
|  | CCS(=O)(=O)c1ccc(-c2cccc(F)c2)nc1-n1nc2cc(C(F)(F)F)ncc2c1Cl [Compound P6] | ≥ 80 |  |  |  | ≥ 80 |  |
|  | CCS(=O)(=O)c1ccc(-c2cccc(F)c2)nc1-n1cc2cnc(C(F)(F)F)cc2n1 [Compound P7] | ≥ 80 |  |  |  |  |  |
|  | CCS(=O)(=O)c1ccc(-n2cccn2)nc1-n1cc2cnc(C(F)(F)F)cc2n1 [Compound P8] | ≥ 80 | ≥ 80 |  |  | ≥ 80 | ≥ 80 |
|  | CCS(=O)(=O)c1ccc(-c2cncnc2)nc1-n1cc2cnc(C(F)(F)F)cc2n1 [Compound P9] | ≥ 80 | ≥ 80 | ≥ 80 |  | ≥ 80 | ≥ 80 |
|  | CCS(=O)(=O)c1ccc(-n2cc(C#N)cn2)nc1-n1nc2cc(C(F)(F)F)ncc2c1Cl [Compound P10, 1-[6-[3-chloro-6-(trifluoromethyl)pyrazolo[4,3-c]pyridin-2-yl]-5-ethylsulfonyl-2-pyridyl]pyrazole-4-carbonitrile] | ≥ 80 |  |  |  | ≥ 80 |  |
|  | CCS(=O)(=O)c1ccc(-c2cccnc2)nc1-n1cc2cnc(C(F)(F)F)cc2n1 [Compound P12, 2-[3-ethylsulfonyl-6-(3-pyridyl)-2-pyridyl]-6-(trifluoromethyl)pyrazolo[4,3-c]pyridine] | ≥ 80 | ≥ 80 |  |  | ≥ 80 |  |
| 257 to 259 | CCS(=O)(=O)c1ccc(NC)nc1-n1nc2cc(C(F)(F)F)ncc2c1Cl [Compound P13] |  |  |  |  |  |  |
|  | CCS(=O)(=O)c1ccc(N)nc1-n1nc2cc(C(F)(F)F)ncc2c1Cl [Compound P14, 6-[3-chloro-6-(trifluoromethyl)pyrazolo[4,3-c]pyridin-2-yl]-5-ethylsulfonyl-pyridin-2-amine] |  |  |  |  |  | ≥ 80 |
|  | CCS(=O)(=O)c1ccc(NC)nc1-n1cc2cnc(C(F)(F)F)cc2n1 [Compound P15] | ≥ 80 | ≥ 80 | ≥ 80 | ≥ 80 | ≥ 80 | ≥ 80 |
| 194 to 196 | CCS(=O)(=O)c1ccc(-c2cccnc2)nc1-n1nc2cc(C(F)(F)F)ncc2c1Cl [Compound P17, 3-chloro-2-[3-ethylsulfonyl-6-(3-pyridyl)-2-pyridyl]-6-(trifluoromethyl)pyrazolo[4,3-c]pyridine] |  |  |  |  |  |  |
|  | CCS(=O)(=O)c1cc(Cl)c(NC)nc1-n1cc2cnc(C(F)(F)F)cc2n1 [Compound P18] | ≥ 80 | ≥ 80 | ≥ 80 |  | ≥ 80 | ≥ 80 |
|  | CCS(=O)(=O)c1ccc(-n2ccc(C#N)n2)nc1-n1cc2cnc(C(F)(F)F)cc2n1 [Compound P20] | ≥ 80 | ≥ 80 | ≥ 80 |  | ≥ 80 |  |
| 264 to 266 | CCS(=O)(=O)c1ccc(-n2ccc(C#N)n2)nc1-n1nc2cc(C(F)(F)F)ncc2c1Cl [Compound P21] |  |  |  |  |  |  |
|  | CCS(=O)(=O)c1ccc(-n2cncn2)nc1-n1nc2cc(C(F)(F)F)ncc2c1C [Compound P22, 2-[3-ethylsulfonyl-6-(1,2,4-triazol-1-yl)-2-pyridyl]-3-methyl-6-(trifluoromethyl)pyrazolo[4,3-c]pyridine] | ≥ 80 | ≥ 80 |  | ≥ 80 | ≥ 80 | ≥ 80 |
|  | CCOc1nc(-n2cc3cnc(C(F)(F)F)cc3n2)c(S(=O)(=O)CC)cc1Cl [Compound P23] | ≥ 80 | ≥ 80 | ≥ 80 |  | ≥ 80 | ≥ 80 |
|  | CCS(=O)(=O)c1cc(Cl)c(OC)nc1-n1cc2cnc(C(F)(F)F)cc2n1 [Compound P24, 2-(5-chloro-3-ethylsulfonyl-6-methoxy-2-pyridyl)-6-(trifluoromethyl)pyrazolo[4,3-c]pyridine] | ≥ 80 | ≥ 80 | ≥ 80 |  | ≥ 80 | ≥ 80 |
| 118 to 120 | CCS(=O)(=O)c1ccc(-n2cnc(SC)n2)nc1-n1nc2cc(C(F)(F)F)ncc2c1Cl [Compound P26] |  |  |  |  |  |  |
| 172 to 174 | CCS(=O)(=O)c1ccc(-n2cnc(SC)n2)nc1-n1cc2cnc(C(F)(F)F)cc2n1 [Compound P27] |  |  |  |  |  |  |
| 247 to 249 | CCS(=O)(=O)c1ccc(-n2cnc(S(C)(=O)=O)n2)nc1-n1cc2cnc(C(F)(F)F)cc2n1 [Compound P28] |  |  |  |  |  |  |
| 166 to 168 | CCS(=O)(=O)c1ccc(N(C)C)nc1-n1nc2cc(C(F)(F)F)ncc2c1Cl [Compound P29] |  |  |  |  |  |  |
| 256 to 258 | CCS(=O)(=O)c1ccc(N(C)C)nc1-n1cc2cnc(C(F)(F)F)cc2n1 [Compound P30] |  |  |  |  |  |  |
| 246 to 248 | CCS(=O)(=O)c1ccc(NO)nc1-n1nc2cc(C(F)(F)F)ncc2c1Cl [Compound P32] |  |  |  |  |  |  |
